Laboratory results from patent US20120177701A1, “COMPOSITIONS COMPRISING IMMUNOSTIMULATORY NUCLEIC ACIDS AND RELATED METHODS” (priority 2010, published 2012).

Columns and labels:
human TLR9 = target: T1, human TLR9 (Homo sapiens, UniProt Q9NR96); format: cell-based
T1 construct: expressed in transfected cells; host or cells: HEK-Blue hTLR9 (HEK293-derived reporter line)
T1 sequence (Q9NR96 26-1032): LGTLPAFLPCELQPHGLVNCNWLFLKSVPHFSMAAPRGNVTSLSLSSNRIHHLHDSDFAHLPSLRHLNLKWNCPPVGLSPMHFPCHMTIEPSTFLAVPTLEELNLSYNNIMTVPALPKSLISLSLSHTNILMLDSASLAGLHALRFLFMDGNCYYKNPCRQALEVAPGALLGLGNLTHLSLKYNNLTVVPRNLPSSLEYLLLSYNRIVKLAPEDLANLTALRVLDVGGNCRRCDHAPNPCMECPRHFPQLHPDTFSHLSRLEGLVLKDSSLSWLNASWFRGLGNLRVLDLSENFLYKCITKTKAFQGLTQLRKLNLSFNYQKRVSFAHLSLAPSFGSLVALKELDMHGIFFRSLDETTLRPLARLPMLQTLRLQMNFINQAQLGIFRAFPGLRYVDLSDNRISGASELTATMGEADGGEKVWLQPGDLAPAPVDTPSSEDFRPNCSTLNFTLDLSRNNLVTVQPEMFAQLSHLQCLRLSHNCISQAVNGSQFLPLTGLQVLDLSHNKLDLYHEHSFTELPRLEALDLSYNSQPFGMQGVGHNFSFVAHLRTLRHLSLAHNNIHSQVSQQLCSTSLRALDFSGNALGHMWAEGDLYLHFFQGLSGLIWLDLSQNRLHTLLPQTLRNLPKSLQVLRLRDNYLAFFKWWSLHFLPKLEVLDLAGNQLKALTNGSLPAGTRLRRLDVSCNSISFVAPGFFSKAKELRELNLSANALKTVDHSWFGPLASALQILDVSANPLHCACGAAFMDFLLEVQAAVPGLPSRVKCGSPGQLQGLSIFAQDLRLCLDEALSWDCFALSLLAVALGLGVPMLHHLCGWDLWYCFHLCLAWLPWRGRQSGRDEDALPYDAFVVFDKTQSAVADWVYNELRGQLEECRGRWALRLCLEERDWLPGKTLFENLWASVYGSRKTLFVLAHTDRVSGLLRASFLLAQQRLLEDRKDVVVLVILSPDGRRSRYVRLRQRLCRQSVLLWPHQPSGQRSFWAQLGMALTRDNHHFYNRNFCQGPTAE

human TLR3 = target: T2, human TLR3 (Homo sapiens, UniProt O15455); format: cell-based
T2 construct: expressed in transfected cells; host or cells: HEK-Blue hTLR3 (HEK293-derived reporter line)
T2 sequence (O15455 24-904): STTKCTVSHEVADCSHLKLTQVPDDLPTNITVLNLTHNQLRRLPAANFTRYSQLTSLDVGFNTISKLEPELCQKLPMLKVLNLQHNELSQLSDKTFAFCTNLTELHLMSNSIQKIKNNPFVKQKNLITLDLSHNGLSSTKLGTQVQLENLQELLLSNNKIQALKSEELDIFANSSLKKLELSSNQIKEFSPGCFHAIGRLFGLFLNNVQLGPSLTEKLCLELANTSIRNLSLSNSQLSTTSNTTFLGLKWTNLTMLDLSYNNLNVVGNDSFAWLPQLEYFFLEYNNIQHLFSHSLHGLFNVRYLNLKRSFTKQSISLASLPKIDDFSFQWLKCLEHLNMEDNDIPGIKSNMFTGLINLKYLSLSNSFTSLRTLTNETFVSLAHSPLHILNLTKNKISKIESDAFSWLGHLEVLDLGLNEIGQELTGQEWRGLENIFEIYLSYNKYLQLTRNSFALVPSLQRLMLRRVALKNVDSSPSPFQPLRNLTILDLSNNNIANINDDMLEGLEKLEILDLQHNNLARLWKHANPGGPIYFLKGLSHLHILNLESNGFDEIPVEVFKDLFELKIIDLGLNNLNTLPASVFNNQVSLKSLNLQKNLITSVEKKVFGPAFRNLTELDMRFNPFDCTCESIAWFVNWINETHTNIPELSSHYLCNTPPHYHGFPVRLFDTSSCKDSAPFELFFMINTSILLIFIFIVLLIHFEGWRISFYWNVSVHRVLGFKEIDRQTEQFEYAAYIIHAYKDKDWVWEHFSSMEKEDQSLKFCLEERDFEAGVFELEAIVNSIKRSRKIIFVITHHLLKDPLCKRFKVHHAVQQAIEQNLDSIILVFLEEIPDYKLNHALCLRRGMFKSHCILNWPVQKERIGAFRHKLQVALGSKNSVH

J774 murine macrophages = test: TNF-α induction in mouse macrophage cell line J774; format: cell-based
Experimental: Induction of TNF-α by macrophages is a hallmark of human TLR8 activation (Forsbach et al., 2008, J. Immunol., 180:3729-38; Ghosh et al., 2007, Int. Immunopharmacol., 7:1111-21; Gorden et al., 2005, J. Immunol., 174:1259-68). […] In the following experiment mouse macrophage cell line, J774, has been transfected by test ribonucleotides as described above for HEK-Blue™ hTLR8 cells (with the exception that 2-10×10^4 cells/well were used) and TNF-α was measured in culture supernatants at 16-20 hours after transfection.

HEK-Blue™ Null = format: cell-based, human
[1] = system: primary human lymphocytes; format: cell-based
human TLR8 = target: T3, human TLR8 (Homo sapiens, UniProt Q9NR97); test: HEK-Blue hTLR8 NF-kB-inducible SEAP reporter assay (TLR8 activation); format: cell-based
T3 construct: host or cells: HEK293 (HEK-Blue hTLR8) with NF-kB-inducible SEAP reporter
T3 sequence (Q9NR97 27-1041): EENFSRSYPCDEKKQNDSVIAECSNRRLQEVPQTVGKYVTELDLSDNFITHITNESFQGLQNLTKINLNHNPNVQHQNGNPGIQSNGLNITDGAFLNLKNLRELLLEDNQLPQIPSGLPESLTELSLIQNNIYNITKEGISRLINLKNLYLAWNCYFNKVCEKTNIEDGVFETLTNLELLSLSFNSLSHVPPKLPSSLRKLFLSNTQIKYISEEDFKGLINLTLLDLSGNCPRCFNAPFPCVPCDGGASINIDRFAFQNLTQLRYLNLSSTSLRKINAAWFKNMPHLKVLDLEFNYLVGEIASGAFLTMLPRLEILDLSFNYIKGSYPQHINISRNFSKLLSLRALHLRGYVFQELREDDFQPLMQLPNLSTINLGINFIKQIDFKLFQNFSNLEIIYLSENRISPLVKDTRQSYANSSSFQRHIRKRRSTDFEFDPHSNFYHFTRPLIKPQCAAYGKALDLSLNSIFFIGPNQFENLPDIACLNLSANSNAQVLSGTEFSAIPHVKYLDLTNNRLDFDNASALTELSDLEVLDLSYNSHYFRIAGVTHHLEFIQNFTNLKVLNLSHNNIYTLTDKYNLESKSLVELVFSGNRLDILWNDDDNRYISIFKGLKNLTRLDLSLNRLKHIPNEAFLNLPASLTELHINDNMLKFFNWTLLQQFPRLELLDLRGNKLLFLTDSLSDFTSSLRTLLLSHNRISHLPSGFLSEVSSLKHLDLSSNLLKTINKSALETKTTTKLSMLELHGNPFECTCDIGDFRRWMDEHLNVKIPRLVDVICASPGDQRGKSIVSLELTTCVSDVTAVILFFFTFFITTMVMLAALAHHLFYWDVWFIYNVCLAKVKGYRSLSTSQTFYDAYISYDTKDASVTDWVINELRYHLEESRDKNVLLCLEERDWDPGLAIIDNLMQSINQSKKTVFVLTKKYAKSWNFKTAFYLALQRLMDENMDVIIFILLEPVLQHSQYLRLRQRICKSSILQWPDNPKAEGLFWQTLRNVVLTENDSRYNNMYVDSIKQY

5′-AAGAAGAAAUAGAUUUAUUUUUAAAUUUUUGUGU-3′ [SL-0005]
activation of SEAP expression (human TLR9): No activation of SEAP expression | activation of SEAP expression (human TLR3): No activation of SEAP expression | TNF-α induction, described in words (J774 murine macrophages): strongly induced TNF-α expression, to the level seen when R-0006 was used | activation of SEAP expression (HEK-Blue™ Null): No activation of SEAP expression | 11-12(p40) induction [1]: significant levels | IFNγ induction [1]: significant levels | IL-4 induction (Th2-type cytokine) [1]: insignificant | IL-5 induction (Th2-type cytokine) [1]: insignificant | IL-6 induction [1]: significant levels | IL-10 induction [1]: significant levels | IL-23 induction [1]: significant levels | TNFα induction [1]: significant levels | TLR8 activation (fold increase of SEAP induction over the background), described in words (human TLR8): stronger levels of TLR8 activation | concentration at which TLR8 activation was detected starting (human TLR8): 40 nM
